No end group written: not given here.
Assay: Body and organ weights of mice after myocardial I-R
Type: in vivo, mouse
Settings: for Body Weight / Organ weight (mg), LV / Organ weight (mg), RV / Organ weight (mg), atria / Organ weight (mg), heart / Organ weight (mg), lung / Organ weight: body weight (mg/g), LV / Organ weight: body weight (mg/g), RV / Organ weight: body weight (mg/g), atria / Organ weight: body weight (mg/g), heart / Organ weight: body weight (mg/g), lung / Heart weight normalized to body weight versus sham / Effect on total heart weight and LV weight normalized to body weight: mice; for Body Weight (BW, g) / Organ weight: BW (mg/g), LV / Organ weight: BW (mg/g), RV / Organ weight: BW (mg/g), atria / Organ weight: BW (mg/g), heart / Organ weight: BW (mg/g), lung / BW: Table 7; for Heart weight normalized to body weight versus sham: 48 h reperfusion; for Effect on total heart weight and LV weight normalized to body weight: 7 days reperfusion
Protocol: Sample collection: After the study period (24 h, 48 h or 7 d), infarcted or sham-operated mice were euthanised, blood was collected by cardiac puncture using a 25G needle and 1 mL syringe coated with heparin (500 U/mL). Plasma was collected from mice after 24 h reperfusion to assess levels of cardiac troponin I (cTnI) levels; whole blood was collected from mice after 48 h reperfusion to assess total and differential white blood cell (WBC) numbers in the circulation. Lungs, atria, left and right ventricles were dissected, blotted dry, and weighed. Left ventricles (LV) were cut in half at the occlusion site, with the upper part fixed in Neutral Buffer Formalin (NBF, Thermo Fisher Scientific, Melbourne, Australia) and the apex placed in Tissue-Tek® optimal cutting temperature (OCT) compound (Tissue-Tek, Torrance, USA) for storage at −80° C.
Body and organ weights were measured to examine effects of drug treatments on systemic and cardiac characteristics in mice subjected to myocardial ischaemia-reperfusion injury or sham operation. Although there was no difference between the two vehicles (10% DMSO) in saline i.v. vs. 10% DMSO containing 0.8% Tween 20 in saline, i.p.), data from these two groups were combined for group analysis.
Assessment of cardiac inflammation in vivo: Lungs, atria, left and right ventricles from mice in Cohort 3 (following 60 min ischemia and 48 h reperfusion, optimal timing for detecting cardiac leukocyte infiltration) were dissected, blotted dry, and weighed. LV were cut in half at the occlusion site, and the apical half placed in Tissue-Tek® optimal cutting temperature compound (Tissue-Tek, Torrance, USA) for storage at −80° C. LV tissues were then sectioned at 6 μm for immunofluorescent detection of cardiac macrophage and neutrophil content. Sections were pre-incubated with 4% paraformaldehyde for 20 min and 10% normal goat serum for a further 30 min. Sections were then incubated at RT with either CD68+ primary antibody or Ly-6B.2 primary antibody (1:200, ABD Serotec, Raleigh, USA) for 1 h, followed by 30 min incubation with the Alexa Fluor 546 secondary antibody (1:200, Invitrogen, Carlsbad, USA). Finally, sections were incubated with 0.001% Hoechst 33342 (Invitrogen, Melbourne, Australia) for 30 min, to elicit nuclear staining. Single images were photographed using a Nikon A1R confocal microscope (Nikon Instruments Inc., NY, USA) under 20× magnification, and 9×9 single images were then automatically stitched together using NIS-Elements AR software (version 4.10 for Windows, Nikon Instruments Inc., NY, USA) to form each complete composite LV image. The images for infarct area were captured under 40× magnification, and the stitched images were then analyzed using Fiji software (version 1.48c for Max OS X, National Institutes of Health, USA). The threshold was set for each image, to enable optimal sensing and quantification of red fluorescence intensity above threshold, and the software then automatically quantified these red fluorescent signals.

| Compound | Body Weight (Table 5, 48 h myocardial I-R) [g] | Organ weight (mg), LV (Table 5, 48 h myocardial I-R) [mg] | Organ weight (mg), RV (Table 5, 48 h myocardial I-R) [mg] | Organ weight (mg), atria (Table 5, 48 h myocardial I-R) [mg] | Organ weight (mg), heart (Table 5, 48 h myocardial I-R) [mg] | Organ weight (mg), lung (Table 5, 48 h myocardial I-R) [mg] | Organ weight: body weight (mg/g), LV (Table 5, 48 h myocardial I-R) [mg/g] | Organ weight: body weight (mg/g), RV (Table 5, 48 h myocardial I-R) [mg/g] | Organ weight: body weight (mg/g), atria (Table 5, 48 h myocardial I-R) [mg/g] | Organ weight: body weight (mg/g), heart (Table 5, 48 h myocardial I-R) [mg/g] | Organ weight: body weight (mg/g), lung (Table 5, 48 h myocardial I-R) [mg/g] | Body Weight (Table 6, 7 d myocardial I-R) [g] | Organ weight (mg), LV (Table 6, 7 d myocardial I-R) [mg] | Organ weight (mg), RV (Table 6, 7 d myocardial I-R) [mg] | Organ weight (mg), atria (Table 6, 7 d myocardial I-R) [mg] | Organ weight (mg), heart (Table 6, 7 d myocardial I-R) [mg] | Organ weight (mg), lung (Table 6, 7 d myocardial I-R) [mg] | Organ weight: body weight (mg/g), LV (Table 6, 7 d myocardial I-R) [mg/g] | Organ weight: body weight (mg/g), RV (Table 6, 7 d myocardial I-R) [mg/g] | Organ weight: body weight (mg/g), atria (Table 6, 7 d myocardial I-R) [mg/g] | also measured |
| --- | --- | --- | --- | --- | --- | --- | --- | --- | --- | --- | --- | --- | --- | --- | --- | --- | --- | --- | --- | --- | --- |
| COc1cccc(Cc2cc(C)nn(C(C)C(=O)Nc3ccc(Br)cc3)c2=O)c1 (stereo not drawn) [BIDI-001, N-(4-bromophenyl)-2-[5-(3-methoxybenzyl)-3-methyl-6-oxo-6H-pyridazin-1-yl]-propionamide] | 28.2 ± 1.0 | 105.0 ± 8.3 | 24.9 ± 3.1 | 14.6 ± 1.2 | 147 ± 11 | 157 ± 6 | 3.7 ± 0.2 | 1.0 ± 0.0 | 0.5 ± 0.0 | 5.2 ± 0.3 | 5.6 ± 0.2 | 24.3 ± 0.5 | 70.1 ± 2.9 | 19.0 ± 1.0 | 7.3 ± 0.8 | 96 ± 4 | 132 ± 3 | 2.9 ± 0.1 | 0.8 ± 0.3 | 0.3 ± 0.0 | Organ weight: body weight (mg/g), heart (Table 6, 7 d myocardial I-R): 4.0 ± 0.1 mg/g; Organ weight: body weight (mg/g), lung (Table 6, 7 d myocardial I-R): 4.7 ± 0.7 mg/g; Body Weight (BW, g) (48 h myocardial I-R): 28 ± 1 g; Organ weight: BW (mg/g), LV (48 h myocardial I-R): 3.7 ± 0.2 mg/g; Organ weight: BW (mg/g), RV (48 h myocardial I-R): 1.0 ± 0.0 mg/g; Organ weight: BW (mg/g), atria (48 h myocardial I-R): 0.5 ± 0.0 mg/g; Organ weight: BW (mg/g), heart (48 h myocardial I-R): 5.2 ± 0.3 mg/g; Organ weight: BW (mg/g), lung (48 h myocardial I-R): 5.6 ± 0.2 mg/g; BW (7 days myocardial I-R): 24 ± 1 g; Organ weight: BW (mg/g), LV (7 days myocardial I-R): 2.9 ± 0.1 mg/g; Organ weight: BW (mg/g), RV (7 days myocardial I-R): 0.8 ± 0.3 mg/g; Organ weight: BW (mg/g), atria (7 days myocardial I-R): 0.3 ± 0.0 mg/g; Organ weight: BW (mg/g), heart (7 days myocardial I-R): 4.0 ± 0.1 mg/g; Organ weight: BW (mg/g), lung (7 days myocardial I-R): 5.4 ± 0.1 mg/g; Heart weight normalized to body weight versus sham: significantly increased; Effect on total heart weight and LV weight normalized to body weight: significantly reduced |
| CC(C)C1C(NC(=O)Nc2ccc(Cl)cc2)C(=O)N(c2ccccc2)N1C (stereo not drawn) [BIDI-002] | 27 ± 0.6 | 94.9 ± 7.5 | 22.9 ± 1.7 | 9.9 ± 2.8 | 132 ± 11 | 154 ± 6 | 3.5 ± 0.2 | 0.8 ± 0.0 | 0.5 ± 0.1 | 4.8 ± 0.3 | 5.7 ± 0.1 | 23.8 ± 0.9 | 89.0 ± 4.2 | 21.4 ± 1.6 | 7.8 ± 0.5 | 118 ± 6 | 138 ± 7 | 3.7 ± 0.1 | 0.9 ± 0.1 | 0.3 ± 0.0 | Organ weight: body weight (mg/g), heart (Table 6, 7 d myocardial I-R): 5.0 ± 0.2 mg/g; Organ weight: body weight (mg/g), lung (Table 6, 7 d myocardial I-R): 5.8 ± 0.3 mg/g; Body Weight (BW, g) (48 h myocardial I-R): 27 ± 1 g; Organ weight: BW (mg/g), LV (48 h myocardial I-R): 3.5 ± 0.2 mg/g; Organ weight: BW (mg/g), RV (48 h myocardial I-R): 0.8 ± 0.0 mg/g; Organ weight: BW (mg/g), atria (48 h myocardial I-R): 0.5 ± 0.1 mg/g; Organ weight: BW (mg/g), heart (48 h myocardial I-R): 4.8 ± 0.3 mg/g; Organ weight: BW (mg/g), lung (48 h myocardial I-R): 5.7 ± 0.1 mg/g; BW (7 days myocardial I-R): 24 ± 1 g; Organ weight: BW (mg/g), LV (7 days myocardial I-R): 3.7 ± 0.1 mg/g; Organ weight: BW (mg/g), RV (7 days myocardial I-R): 0.9 ± 0.1 mg/g; Organ weight: BW (mg/g), atria (7 days myocardial I-R): 0.3 ± 0.0 mg/g; Organ weight: BW (mg/g), heart (7 days myocardial I-R): 5.0 ± 0.2 mg/g; Organ weight: BW (mg/g), lung (7 days myocardial I-R): 5.8 ± 0.3 mg/g; Effect on total heart weight and LV weight normalized to body weight: not; Effect on total heart weight and LV weight normalized to body weight (listed as Cmpd43): not shared |
| Ac2-26: Annexin-A1 N-terminal peptide, peptide ANX-A1 mimetic (Ac-AMVSEFLKQAWFIENEEQEYVQTVK; UniProt P04083 2-26, looked up, fragment) | 28.2 ± 1.0 | 109.8 ± 5.5 | 24.3 ± 0.9 | 10.1 ± 0.7 | 144 ± 6 | 145 ± 9 | 3.8 ± 0.2 | 0.8 ± 0.0 | 0.3 ± 0.0 | 5.0 ± 0.2 | 5.0 ± 0.3 | 25.6 ± 1.0 | 102.9 ± 6.5 | 17.8 ± 2.4 | 8.3 ± 1.0 | 129 ± 10 | 147 ± 7 | 4.0 ± 0.2 | 0.7 ± 0.1 | 0.3 ± 0.0 | Organ weight: body weight (mg/g), heart (Table 6, 7 d myocardial I-R): 5.0 ± 0.2 mg/g; Organ weight: body weight (mg/g), lung (Table 6, 7 d myocardial I-R): 5.7 ± 0.2 mg/g; Heart weight normalized to body weight versus sham: significantly increased; Effect on total heart weight and LV weight normalized to body weight: not |

— patent US10328075B2, “Method of treatment and compounds for use therein” (Baker Heart and Diabetes Institute, priority 2015, dated 2019)
